The subject of series [1] is human myeloma cells (ATCC CCL155). Kind of series: Cytotoxicity assay: growth inhibition of CCL155 cells, MTS/PMS readout. Particulars: Table 1, approximately 48 hours with test compound, concentration not given. Type of series: cell-based. Here is the method:
The anticancer activity against human myeloma of the novel compounds (as earlier reported) was realized by the following procedure which determines the inhibitory effect of test samples on the growth of human myeloma cells.
[…]
(ATCC CCL155) The CCL155 cells are grown in RPMI 1640 media+20% Fetal bovine serum+4.5 g/L glucose+10 mM HEPES+1.0 mM sodium pyruvate+1% Antibiotic/Antimycotic for approximately 48 hours at 37° C./5% CO2 in the presence of the test compound.
Growth/Non-Growth of the cells (e.g., cell density) is determined using Promega's MTS/PMS assay system. MTS (3-(4,5-dimethylthiazol-2-yl)-5-(3-carboxymethoxyphenyl)-2-(4-sulfophenyl)-2H-tetrazolium, inner salt) is an aqueous compound that is reduced to soluble formazan by the presence of NADH formed by dehydrogenases present within the CCL155 cells. The absorbance of the formazan can be measured at 490 nm and is directly proportional to the number of living cells present in the culture. PMS (Phenazine Methosulfate) is added an electron coupling reagent and greatly increases the rate of reduction.
To facilitate a full understanding of the procedure the following definitions are offered:
Test wells—wells containing test sample and Diluted CCL155 cells
Test values—absorbance of test wells
Blank wells—wells containing test sample and CCL155 media (C155-01S); used to obtain background absorbance due to test sample
Blank values—absorbance of blank wells
Negative Control—maximal cell growth; results of test samples will be expressed as a percent of the Negative Control
Positive Control—known inhibitor of CCL155 cells; used to validate assay system
Matrix—solvent that the samples are prepared/diluted in […]
Blank values will be determined for each sample to account for any color contribution due to the sample itself. […] After completion of MTS/PMS reaction blank values will be subtracted from the test value to obtain a net absorbance that will be used to calculate cell density. […]
In order to establish the accuracy of this assay a Positive Control consisting of 50 μM Methotrexate […] of the Negative Control (CCL155 cells are somewhat resistant to methotrexate) is utilized.
In order to establish the accuracy of this assay a Positive Control consisting of 50 μM Methotrexate should show less than 75% of the net absorbance of the Negative Control is utilized.

Series [2] is described as follows: Solubility in solvents and water.
The nature of series [3]: Animal toxicity bioassay: acute toxicity, intraperitoneal injection, LD50 by Litchfield and Wilkinson. The class given is in vivo. The note with it: both sexes, mouse, in vivo, ip, white mice, observed 14 days. Here is the method: (§1) Acute toxicity was studied on white mice of both sexes with weight ranging between 18-26 grams under intraperitoneal injection of 2% solution of tested compound in starch (the compound was dissolved in starch slime and injected) on the basis of 0.1 ml of solution per 10 g of the animal weight. Each dose was tested on the group of 6 animals that were observed during 14 days period.

The next series deals with white mice. The series is described as above. Type of series: in vivo. The note with it: Table 1, observed 14 days. The method, then: as §1
Another series concerns mice. Particulars: cited from earlier work.
The next series in a line: Stability in solutions. The class given is physicochemical. Particulars: solution heated or stored for a long time; forms OF-12.

Consider nine compounds from US6686496B1, “Treatment of myeloma” (University of Central Florida, priority 2001, dated 2004).

Molecules are shown by their SMILES.

One may read the LD50 as the dose expected to kill half of the subjects tested. Read a low LD50 as greater toxicity. For `COC(=O)/C(=C/C(=O)c1ccccc1)NN=C1c2ccccc2-c2ccccc21` [1F-04, 2-(N′-Fluoren-9-ylidene-hydrazino)-4-oxo-4-phenyl-but-2-enoic acid methyl ester], the “Activity (ATCC CCL155)” value in series [1] stood at 93%. In series [2], the “Solubility in DMSO, DMFA, dichloroethane, acetonitrile” value (“Solubility in DMSO, DMFA” below) is listed as “highly soluble” and the Solubility in water result was “insoluble”. This compound returned a 50% lethal dose (LD50) at 14 days in series [3] of more than 1000 mg/kg.

Take `CCOc1ccc(/C(Cl)=C/C(=N\N=C2c3ccccc3-c3ccccc32)C(=O)OC)cc1` [3F-19, 4-Chloro-4-(4-ethoxy-phenyl)-2-(fluoren-9-ylidene-hydrazono)-but-3-enoic acid methyl ester]: the “Activity (ATCC CCL155)” value in series [1] came out at 100%. This compound also showed an LD50 with white mice of more than 200 mg/kg.

`N[C@@H](Cc1ccc(N(CCCl)CCCl)cc1)C(=O)O` [Melphalan]: the “Toxicity: LD50 in mice” value in the series on mice is on record as 23 mg/kg.

With `COC(=O)C(=CC(=O)C(C)(C)C)NN=C1c2ccccc2-c2ccccc21` [OF-06, 2-(N′-Fluoren-9-ylidene-hydrazino)-5,5-dimethyl-4-oxo-hex-2-enoic acid methyl ester], the “Activity (ATCC CCL155)” value in series [1] is 82%. Besides, in series [2], the “Solubility in DMSO, DMFA” value is listed as “highly soluble”. For the same compound, the “Solubility in ethanol, tetrachloromethane” value in series [2] (ethanol, tetrachloromethane) is “slightly soluble”. The Solubility in hexane entry in series [2] (hexane) is given as “insoluble”. In addition, the LD50 in the series with white mice is recorded as more than 3000 mg/kg. This compound registered an LD50 at 14 days in series [3] of more than 3000 mg/kg.

Regarding `COC(=O)C(=CC(=O)c1ccc(Cl)cc1)NN=C1c2ccccc2-c2ccccc21` [OF-07, 4-(4-Chloro-phenyl)-2-(N′-fluoren-9-ylidene-hydrazino)-4-oxo-but-2-enoic acid methyl ester], in series [2], the “Solubility in DMSO, DMFA” value was “highly soluble” and the Solubility in water result is on record as “insoluble”. The compound also returned an LD50 at 14 days in series [3] of more than 750 mg/kg.

With `COC(=O)/C(=C/C(=O)c1ccccc1)N/N=C(\c1ccccc1)c1ccccc1Br` [OF-09, 2-{N′-[(2-Bromo-phenyl)-phenyl-methylene]-hydrazino}-4-oxo-4-phenyl-but-2-enoic acid methyl ester], in series [2], the “Solubility in DMSO, DMFA” value was “highly soluble” and the Solubility in water entry is recorded as “insoluble”. Also, in series [3], the LD50 at 14 days is more than 5000 mg/kg.

As to `COC(=O)/C(=C/C(=O)c1ccccc1)N/N=C(\c1ccccc1)c1ccc(N(C)C)cc1` [OF-10, 2-{N′-[(4-Dimethylamino-phenyl)-phenyl-methylene]-hydrazino}-4-oxo-4-phenyl-but-2-enoic acid methyl ester], in series [2], the “Solubility in DMSO, DMFA” value is given as “highly soluble”; the Solubility in chloroform result is given as “highly soluble”; the Solubility in water result is listed as “insoluble”. This compound also came in with an LD50 at 14 days in series [3] of more than 1500 mg/kg.

`CCOc1ccc(C(=O)CC(O)(NN=C2c3ccccc3-c3ccccc32)C(=O)OC)cc1` (stereo not drawn) [OF-13, 4-(4-Ethoxy-phenyl)-2-(N′-fluoren-9-ylidene-hydrazino)-2-hydroxy-4-oxo-butyric acid methyl ester]: the “Activity (ATCC CCL155)” value in series [1] is given as 99%. The Stability in solutions entry in the series “Stability in solutions” was “not stable in solutions and decomposes quickly when the solution is heated or stored for a long time”. In series [3], this compound had an LD50 at 14 days of more than 1500 mg/kg.

For `COC(=O)/C(=C/C(=O)c1ccccc1)N/N=C(\C)c1ccc(Cl)cc1` [OF-20, 2-{N′-[1-(4-Chloro-phenyl)-ethylidene]-hydrazino}-4-oxo-4-phenyl-but-2-enoic acid methyl ester], in series [2], the “Solubility in DMSO, DMFA” value is given as “highly soluble”; the Solubility in chloroform result is reported as “highly soluble”; the Solubility in water entry is recorded as “insoluble”. The same compound yielded a median lethal dose (LD50) at 14 days in series [3] of more than 250 mg/kg.
